Assays:
[1] = tested on: mitochondria and/or endoplasmic reticulum; test: Partitioning of dye into subcellular organelles; assay type: cell-based
Excerpt: (§1) More generally, IR-786 may be used for non-radioactive imaging of areas of ischemia in the living heart, or other visualization of the viability of other tissues.

[2] = Imaging of blood flow in the heart of a living laboratory rat after thoracotomy; assay type: in vivo
Excerpt: as §1

[3] = Solubility of dye in blood; details: small molecule form
[4] = In vivo early half-life of dye in blood; details: small molecule form
Excerpt: This permits multiple injections during a single procedure.

Row | Compound | partitioning into mitochondria and/or endoplasmic reticulum [1] | imaging of blood flow in the heart [2] | solubility in blood [3] | in vivo early half-life [4]
1 | CN1C(=CC=C2CCCC(C=CC3=[N+](C)c4ccccc4C3(C)C)=C2Cl)C(C)(C)c2ccccc21.[O-][Cl+3]([O-])([O-])[O-] [IR-786] | partitions efficiently into mitochondria and/or endoplasmic reticulum in a concentration-dependent manner | successfully applied |  | 
2 | CC1(C)C(/C=C/C=C/C=C/C=C2\N(CCCCS(=O)(=O)O)c3ccc4ccccc4c3C2(C)C)=[N+](CCCCS(=O)(=O)[O-])c2ccc3ccccc3c21 [Indocyanine green, indocyanine green] |  |  | somewhat less soluble in blood | shorter half-life

Source: patent US9326666B2, “Multi-channel medical imaging system” (Beth Israel Deaconess Medical Center, priority 2002, dated 2016)
